Measured values taken from US8962574B2 (Boehringer Ingelheim International GmbH, priority 2008, dated 2015).
Several values for one entry are separate records, joined by “and”; a condition that tells them apart may be missing. Identical values can stand only once. Like-named read-outs stand apart in the source and are kept apart here.

Assays:
[1] = test system: patients with chronic atrial fibrillation; experiment: PETRO phase 2 12-week dose finding study; type: in vivo, human; settings: 12 weeks
Description: Primary endpoints were bleeding events and changes in D-dimer. […] Minor bleeding was dose related.

[2] = Clinical pharmacokinetics and pharmacodynamics of dabigatran etexilate; type: in vivo; settings: after dosing
Description: Ezekowitz M D, et al., Dabigatran with or without concomitant aspirin compared with warfarin alone in patients with nonvalvular atrial fibrillation (PETRO study), Am. […] The PETRO study is described below.
As noted above, management of warfarin therapy is complex, and failure to adequately monitor patients is associated with risk. […] It also interacts with many common foods, drugs and alcohol which alter its therapeutic effect, putting patients at risk of either a bleeding or thrombotic event. Therefore, warfarin therapy requires careful individualized dosing and frequent monitoring. The significant limitations of VKAs have created a need for an oral anticoagulant with a rapid onset of action, minimal drug interactions, and a predictable anticoagulation effect that needs no monitoring.
Peak levels are seen within 2-3 hours of oral administration. […] Steady-state is reached within 2-3 days with a twice daily regimen. […] The remainder undergoes conjugation with glucuronic acid to form acylglucuronides which are excreted primarily in the bile.

[3] = test system: patients with atrial fibrillation
Description: PETRO-Ex began while the PETRO study was ongoing and investigators were initially kept blinded to patient treatment group until PETRO was completed. Unblinding investigators to patient treatment was possible thereafter.
Data were summarized descriptively; no hypothesis was to be tested. Events were analyzed on the basis of the treatment at onset. Incidences were reported as number of patients with events as well as normalized to 100 patient-years on the respective treatment.
Written, informed consent was obtained from all patients.
Patients who completed PETRO on 50 mg b.i.d. were switched to 150 mg q.d. upon entry in the PETRO-Ex study (N=93 patients). […] Patients who were down titrated to 50 mg q.d. based on a glomerular filtration rate ≦50 mL/min during PETRO were excluded from the long-term trial; patients down-titrated in other dose levels remained on the q.d. treatment at that dose.
The total exposure reflects both trials, PETRO and PETRO-Ex, together.

[4] = individual patients with LFT abnormalities, one table line per patient (age c0, sex c1), ^# = with concomitant Bilirubin elevation to >2xULN

## CCCCCCOC(=O)NC(=N)c1ccc(NCc2nc3cc(C(=O)N(CCC(=O)OCC)c4ccccn4)ccc3n2C)cc1 [dabigatran etexilate, 1-methyl-2-[N-[4-(N-n-hexyloxycarbonylamidino)phenyl]aminomethyl]benzimidazol-5-ylcarboxylic acid-N-(2-pyridyl)-N-(2-ethoxycarbonylethyl)amides]
[1]; 300 mg b.i.d. plus ASA groups
  Major bleeding events: 6%
  Major bleeding events, number: Four
[1]; 50, 150, 300 mg b.i.d.
  Minor bleeding: dose related
[2]
  Onset of anticoagulant effect: within one hour
[3]; 50 mg b.i.d.
  ALT or AST >2xULN, subjects with event: 0
  ALT or AST >3xULN and Bili >2xULN within 30 days, subjects with event: 0
  ALT or AST >3xULN, subjects with event: 0
  ALT or AST >5xULN, subjects with event: 0
  Adverse Events leading to premature discontinuation, rate: 21.3 % per year
  Adverse Events leading to premature discontinuation, subjects with event: 5
  MI, subjects with event: 0
  Major Bleeds with aspirin, subjects with event: 0
  Major Bleeds without aspirin, subjects with event: 0
  Major Bleeds, subjects with event: 0
  Other MACE, subjects with event: 2
  Stroke and Systemic Thromboembolism, subjects with event: 3
  TIA, subjects with event: 0
[3]; 50 mg q.d.
  ALT or AST >2xULN, subjects with event: 0
  ALT or AST >3xULN and Bili >2xULN within 30 days, subjects with event: 0
  ALT or AST >3xULN, subjects with event: 0
  ALT or AST >5xULN, subjects with event: 0
  Adverse Events leading to premature discontinuation, subjects with event: 0
  MI, subjects with event: 0
  Major Bleeds with aspirin, subjects with event: 0
  Major Bleeds without aspirin, subjects with event: 0
  Major Bleeds, subjects with event: 0
  Other MACE, subjects with event: 0
  Stroke and Systemic Thromboembolism, subjects with event: 0
  TIA, subjects with event: 0
[3]; 150 mg b.i.d.
  ALT or AST >2xULN, rate: 3.1 % per year
  ALT or AST >2xULN, subjects with event: 21
  ALT or AST >3xULN and Bili >2xULN within 30 days, rate: 0.4 % per year
  ALT or AST >3xULN and Bili >2xULN within 30 days, subjects with event: 3
  ALT or AST >3xULN, rate: 1.9 % per year
  ALT or AST >3xULN, subjects with event: 13
  ALT or AST >5xULN, rate: 1.0 % per year
  ALT or AST >5xULN, subjects with event: 7
  Adverse Events leading to premature discontinuation, rate: 9.8 % per year
  Adverse Events leading to premature discontinuation, subjects with event: 67
  MI, subjects with event: 6
  Major Bleeds with aspirin, rate: 8.7 % per year
  Major Bleeds with aspirin, subjects with event: 11
  Major Bleeds without aspirin, rate: 3.2 % per year
  Major Bleeds without aspirin, subjects with event: 18
  Major Bleeds, rate: 4.2 % per year
  Major Bleeds, subjects with event: 29
  Other MACE, subjects with event: 7
  Stroke and Systemic Thromboembolism, subjects with event: 7
  TIA, subjects with event: 1
[3]; 150 mg q.d.
  ALT or AST >2xULN, rate: 3.4 % per year
  ALT or AST >2xULN, subjects with event: 2
  ALT or AST >3xULN and Bili >2xULN within 30 days, subjects with event: 0
  ALT or AST >3xULN, subjects with event: 0
  ALT or AST >5xULN, subjects with event: 0
  Adverse Events leading to premature discontinuation, rate: 13.7 % per year
  Adverse Events leading to premature discontinuation, subjects with event: 8
  MI, subjects with event: 0
  Major Bleeds with aspirin, subjects with event: 0
  Major Bleeds without aspirin, rate: 6.5 % per year
  Major Bleeds without aspirin, subjects with event: 3
  Major Bleeds, rate: 5.1 % per year
  Major Bleeds, subjects with event: 3
  Other MACE, subjects with event: 0
  Stroke and Systemic Thromboembolism, subjects with event: 3
  TIA, subjects with event: 0
[3]; 300 mg b.i.d.
  ALT or AST >2xULN, rate: 4.9 % per year
  ALT or AST >2xULN, subjects with event: 4
  ALT or AST >3xULN and Bili >2xULN within 30 days, subjects with event: 0
  ALT or AST >3xULN, rate: 2.4 % per year
  ALT or AST >3xULN, subjects with event: 2
  ALT or AST >5xULN, rate: 1.2 % per year
  ALT or AST >5xULN, subjects with event: 1
  Adverse Events leading to premature discontinuation, rate: 25.6 % per year
  Adverse Events leading to premature discontinuation, subjects with event: 21
  MI, subjects with event: 0
  Major Bleeds with aspirin, rate: 32.7 % per year
  Major Bleeds with aspirin, subjects with event: 6
  Major Bleeds without aspirin, rate: 6.3 % per year
  Major Bleeds without aspirin, subjects with event: 4
  Major Bleeds, rate: 12.2 % per year
  Major Bleeds, subjects with event: 10
  Other MACE, subjects with event: 1
  Stroke and Systemic Thromboembolism, subjects with event: 1
  TIA, subjects with event: 0
[3]; 300 mg q.d.
  ALT or AST >2xULN, rate: 1.5 % per year
  ALT or AST >2xULN, subjects with event: 3
  ALT or AST >3xULN and Bili >2xULN within 30 days, rate: 0.5 % per year
  ALT or AST >3xULN and Bili >2xULN within 30 days, subjects with event: 1
  ALT or AST >3xULN, rate: 1.5 % per year
  ALT or AST >3xULN, subjects with event: 3
  ALT or AST >5xULN, rate: 1.5 % per year
  ALT or AST >5xULN, subjects with event: 3
  Adverse Events leading to premature discontinuation, rate: 9.6 % per year
  Adverse Events leading to premature discontinuation, subjects with event: 19
  MI, subjects with event: 1
  Major Bleeds with aspirin, rate: 3.6 % per year
  Major Bleeds with aspirin, subjects with event: 2
  Major Bleeds without aspirin, rate: 2.1 % per year
  Major Bleeds without aspirin, subjects with event: 3
  Major Bleeds, rate: 2.5 % per year
  Major Bleeds, subjects with event: 5
  Other MACE, subjects with event: 1
  Stroke and Systemic Thromboembolism, subjects with event: 5
  TIA, subjects with event: 0
[3]; PETRO-Ex
  Serious adverse events: cardiac disorders, number of patients: 80
  Serious adverse events: gastrointestinal disorders, number of patients: 28
  Serious adverse events: infections, number of patients: 34
  Serious adverse events: nervous system disorders, number of patients: 33
[3]; PETRO-Ex, including bleeding and thrombotic events
  Serious adverse events, number of patients: 184
[3]; Total (all doses)
  ALT or AST >2xULN, rate: 2.9 % per year
  ALT or AST >2xULN, subjects with event: 30
  ALT or AST >3xULN and Bili >2xULN within 30 days, rate: 0.4 % per year
  ALT or AST >3xULN and Bili >2xULN within 30 days, subjects with event: four
  ALT or AST >3xULN, rate: 1.7 % per year
  ALT or AST >3xULN, subjects with event: 18
  ALT or AST >5xULN, rate: 1.1 % per year
  ALT or AST >5xULN, subjects with event: 11
  Adverse Events leading to premature discontinuation, rate: 11.5 % per year
  Adverse Events leading to premature discontinuation, subjects with event: 120
  MI, subjects with event: 7
  Major Bleeds with aspirin, rate: 8.5 % per year
  Major Bleeds with aspirin, subjects with event: 19
  Major Bleeds without aspirin, rate: 3.2 % per year
  Major Bleeds without aspirin, subjects with event: 26
  Major Bleeds, rate: 4.2 % per year
  Major Bleeds, subjects with event: 44
  Other MACE, subjects with event: 11
  Stroke and Systemic Thromboembolism, subjects with event: 20
  TIA, subjects with event: 1
[3]; Total (all doses), listed as Dabigatran etexilate
  ALT or AST >3xULN and Bili >2xULN within 30 days, subjects with event: 4
[3]; in vivo
  Risk ratio of bleeding event rate on concomitant aspirin vs. without: 2.70
[3]; individual patients with LFT abnormalities, one table line per patient (age c0, sex c1)
  Final Outcome/Comment of LFT abnormality: Recovered
[3]; [4]
  LFT abnormality ALT/ULN: >5x xULN (4×) and >5x^# xULN (2×) and >3x xULN (5×) and >3x^# xULN
  LFT abnormality AST/ULN: >5x^# xULN (4×) and >5x xULN (4×) and >3x xULN (5×)
[3]; individual patients with LFT abnormalities, one table line per patient (age c0, sex c1), listed as Dabigatran etexilate
  Final Outcome/Comment of LFT abnormality: Fatal
